As usually defined, the Emax is the maximal effect, on the per cent scale that the assay sets. In general, IC50 refers to the concentration that inhibits the measured activity by half.

The species named for assay [1] is Rattus norvegicus. Kind of assay: Potency index, spasmolytic activity in Wistar rat ileum relative to gigantol. Format: functional.
Assay [2] is filed under the species Rattus norvegicus. In words: Spasmolytic activity in Wistar rat ileum. Format: functional.

For `Oc1ccccc1-c1nc2ccccc2[nH]1`, in the assay listed under Rattus norvegicus [1], the “Ratio IC50” value is recorded as 1.13. In addition, in the assay listed under Rattus norvegicus [2], the Emax was determined as 42.4% and inhibition was half-maximal at 5.15 µM (IC50).
Consider `COc1cc(OC)c(-c2nc3ccccc3[nH]2)cc1OC`, for which, in the assay filed under Rattus norvegicus [1], the “Ratio IC50” value is given as 1.45. In the assay filed under Rattus norvegicus [2], this compound yielded an Emax of 90% and an IC50 of 4 µM.
In the case of `COc1ccccc1-c1nc2ccccc2[nH]1`, the “Ratio IC50” value in the assay filed under Rattus norvegicus [1] was found to be 0.75. In the assay listed under Rattus norvegicus [2], this compound had an Emax of 52.8% and an IC50 of 7.7 µM.
On to `COc1ccc(-c2nc3ccccc3[nH]2)cc1OC`, for which the “Ratio IC50” value in the assay listed under Rattus norvegicus [1] worked out at 1.04. In the assay listed under Rattus norvegicus [2], this compound yielded an Emax of 55% and an IC50 of 5.6 µM.
`COc1ccc(-c2nc3ccccc3[nH]2)c(OC)c1OC`: in the assay listed under Rattus norvegicus [1], the “Ratio IC50” value came to 3.23. In the assay listed under Rattus norvegicus [2], this compound returned an Emax of 65% and a half-maximal inhibitory concentration (IC50) of 1.8 µM.
As to `CN(C)c1ccc(-c2nc3ccccc3[nH]2)cc1`, the “Ratio IC50” value in the assay listed under Rattus norvegicus [1] is reported as 0.19. In the assay listed under Rattus norvegicus [2], this compound registered an Emax of 34.9% and an IC50 of 30 µM.
Turning to `c1ccc(COc2ccccc2-c2nc3ccccc3[nH]2)cc1`, in the assay filed under Rattus norvegicus [1], the “Ratio IC50” value came out at 0.21. In the assay listed under Rattus norvegicus [2], the maximum response (Emax) was 51.4% and half-maximal inhibition (IC50) was put at 28.2 µM.
For the compound `CCCOc1ccccc1-c1nc2ccccc2[nH]1`, the “Ratio IC50” value in the assay filed under Rattus norvegicus [1] came to 3.06. Besides, in the assay listed under Rattus norvegicus [2], the Emax was 80% and the IC50 was 1.9 µM.
With `CCOc1ccccc1-c1nc2ccccc2n1CC`, in the assay filed under Rattus norvegicus [1], the “Ratio IC50” value turned out to be 3.39. In the assay filed under Rattus norvegicus [2], this compound registered an Emax of 60% and an IC50 of 1.72 µM.
The like results for `O=[N+]([O-])c1ccccc1-c1nc2ccccc2[nH]1` were, in that order, 0.07, 11.1% and 78.6 µM.
The like results for `CCOc1ccccc1-c1nc2ccccc2[nH]1` were, in that order, 3, 50% and 1.94 µM.
As to `Oc1ccc(-c2nc3ccccc3[nH]2)cc1`, the “Ratio IC50” value in the assay filed under Rattus norvegicus [1] is 1.11. For the same compound, in the assay listed under Rattus norvegicus [2], the Emax was determined as 61.2% and the IC50 amounted to 5.25 µM.
The like results for `c1ccc2[nH]c(-c3ccc4c(c3)OCO4)nc2c1` were, in that order, 1.71, 59% and 3.4 µM.
`COc1ccc(-c2nc3ccccc3[nH]2)cc1`: in the assay listed under Rattus norvegicus [1], the “Ratio IC50” value turned out to be 0.55. In the assay listed under Rattus norvegicus [2], the Emax came out at 54.9% and it took 10.6 µM to reach half-maximal inhibition (IC50).
The like results for `c1ccc2[nH]c(-c3ccncc3)nc2c1` were, in that order, 0.03, 50% and 190 µM.
For `Clc1ccc(COc2ccccc2-c2nc3ccccc3[nH]2)cc1`, in the assay filed under Rattus norvegicus [1], the “Ratio IC50” value is on record as 0.09. In addition, in the assay filed under Rattus norvegicus [2], the Emax came to 38.2% and the IC50 came out at 59 µM.
On to `Cc1ccc(COc2ccccc2-c2nc3ccccc3[nH]2)cc1`, for which the “Ratio IC50” value in the assay filed under Rattus norvegicus [1] amounted to 0.38. In the assay listed under Rattus norvegicus [2], this compound displayed an Emax of 47.7% and an IC50 of 15 µM.
On to `COc1cc(-c2nc3ccccc3[nH]2)ccc1O`, for which the “Ratio IC50” value in the assay filed under Rattus norvegicus [1] was 4.9. In the assay filed under Rattus norvegicus [2], this compound registered an Emax of 70% and an IC50 of 1.19 µM.
For the compound `COc1ccc(Cc2nccc3cc(OC)c(OC)cc23)cc1OC` [PAPAVERINE], in the assay filed under Rattus norvegicus [1], the “Ratio IC50” value stood at 3.76. The compound further had an Emax in the assay listed under Rattus norvegicus [2] of 96.7%.

For the origin of these results see ChEMBL document CHEMBL1146025, “Design, microwave-assisted synthesis, and spasmolytic activity of 2-(alkyloxyaryl)-1H-benzimidazole derivatives as constrained stilbene bioisosteres” (Bioorg Med Chem Lett, 2006).
